From ChEMBL document CHEMBL5385907, “Proline-Hinged α-Helical Peptides Sensitize Gram-Positive Antibiotics, Expanding Their Physicochemical Properties to Be Used as Gram-Negative Antibiotics” (J Med Chem, 2024)
Values after ≈ are worked out from the molar mass of the structure shown. Active and inactive are the calls of the source. The calls are words filed in the database; no cut-off is given here. Residues, ends and D or L forms follow the SMILES beside them. *: point of attachment. X1 = CN(C)c1ccc2c(-c3ccc(C(=O)*)cc3C(=O)[O-])c3ccc(N(C)C)cc3[o+]c2c1; Octanoyl = CCCCCCCC(=O)*

Columns and labels:
[1] = Clearance in CD1 mouse at 10 mg/kg,iv administration measured upto 1 hr by LC-MS/MS analysis; type: ADME, organism-based; conditions: in vivo
Escherichia coli [2] = experiment: Antibacterial activity against Escherichia coli ATCC 25922 assessed as fold increase in bacterial growth inhibition incubated for 1 hr by propidium iodide staining based fluorescence assay; type: functional
[3] = AUClast in CD1 mouse at 10 mg/kg,iv administration measured upto 1 hr by LC-MS/MS analysis; type: ADME, organism-based; parameters: time < 1 hrs, dose 10 mg/kg, route iv; conditions: in vivo
Klebsiella pneumoniae [4] = experiment: Antibacterial activity against Klebsiella pneumoniae ATCC 700603 assessed as inhibition of bacterial growth incubated for 18 hrs by two fold serial dilution assay; type: functional
Acinetobacter baumannii [5] = experiment: Antibacterial activity against Acinetobacter baumannii ATCC 17978 assessed as inhibition of bacterial growth incubated for 18 hrs by two fold serial dilution assay; type: functional
Escherichia coli [6] = experiment: Potentiation of rifampicin induced antibacterial activity against NDM1-producing carbapenem-resistant Escherichia coli infected CD1 mouse sepsis model assessed as reduction in bacterial colony forming unit in lung tissue at 25 mg/kg,SC administrated after 6 hrs of post-infection in presence of rifampicin; type: functional, organism-based
Escherichia coli [7] = experiment: Antibacterial activity against Escherichia coli ATCC 25922 assessed as inhibition of bacterial growth incubated for 18 hrs by two fold serial dilution assay; type: functional
Cell membrane [8] = experiment: Induction of outer membrane permeabilization in Escherichia coli ATCC 25922 assessed as increase in fluorescence by measuring fold change by NPN-dye based fluorescence analysis; type: subcellular
Acinetobacter baumannii [9] = experiment: Antibacterial activity against Acinetobacter baumannii ATCC 17978 assessed as inhibition of bacterial growth incubated for 18 hrs in presence of rifampicin with calcium and Mg2+ broth media by two fold serial dilution assay; type: functional, organism-based
[10] = Toxicity in male Sprague-Dawley rat assessed as no observed adverse effect level at iv administration and observed on day 14; type: organism-based; conditions: in vivo, time 14 day
[11] = Clearance in CD1 mouse at 1 mg/kg,iv administration measured upto 1 hr by LC-MS/MS analysis; type: ADME, organism-based; conditions: in vivo
[12] = Nephrotoxicity in Sprague-Dawley rat assessed as […] in creatinine level at 30 mg/kg,iv administration for 1 hr and measured after 25 hrs; type: toxicity, organism-based; conditions: in vivo, 26 h
[13] = Toxicity in male Sprague-Dawley rat assessed as reduction in body weight at 60 mg/kg,iv administration observed on day 14 relative to control; type: organism-based; parameters: scale not given: the % may be the effect or the level left; conditions: in vivo, 336 h, time 14 day
[14] = AUClast in Sprague-Dawley rat at 3 mg/kg,iv administration measured upto 24 hr by LC-MS/MS analysis; type: ADME, organism-based; parameters: time < 24 hrs, dose 3 mg/kg, route iv; conditions: in vivo
Klebsiella pneumoniae [15] = experiment: Antibacterial activity against Klebsiella pneumoniae ATCC 700603 assessed as inhibition of bacterial growth incubated for 18 hrs in presence of rifampicin with calcium and Mg2+ broth media by two fold serial dilution assay; type: functional, organism-based
[16] = Clearance in CD1 mouse at 3 mg/kg,iv administration measured upto 1 hr by LC-MS/MS analysis; type: ADME, organism-based; conditions: in vivo
[17] = Cytotoxicity against human HK-2 cells assessed as cell growth inhibition incubated for 24 hrs by WST-1 reagent microplate reader assay; type: toxicity, cell-based
[18] = Toxicity in male Sprague-Dawley rat assessed as reduction in body weight at 20 mg/kg,iv administration observed on day 14; type: organism-based; conditions: in vivo, 336 h, time 14 day
[19] = Nephrotoxicity in Sprague-Dawley rat assessed as increase in blood urea nitrogen level at 30 mg/kg,iv administration for 1 hr and measured after 25 hrs; type: toxicity, organism-based; conditions: in vivo, 26 h
[20] = Toxicity in female Sprague-Dawley rat assessed as no observed adverse effect level at iv administration and observed on day 14; type: organism-based; conditions: in vivo, time 14 day
Escherichia coli [21] = experiment: Potentiation of rifampicin induced antibacterial activity against NDM1-producing carbapenem-resistant Escherichia coli infected CD1 mouse sepsis model assessed as reduction in bacterial colony forming unit in lung tissue at 25 mg/kg,SC administrated after 2 hrs of post-infection in presence of rifampicin; type: functional, organism-based
[22] = Hemolytic activity in human blood assessed as hemolysis incubated for 6 hrs by microplate reader analysis; type: toxicity, tissue-based
[23] = Toxicity in female Sprague-Dawley rat assessed as reduction in body weight at 20 to 60 mg/kg,iv administration observed on day 4; type: organism-based; conditions: in vivo, 96 h, dose 20-60 mg/kg, time 4 day
[24] = AUClast in CD1 mouse at 3 mg/kg,iv administration measured upto 1 hr by LC-MS/MS analysis; type: ADME, organism-based; parameters: dose 3 mg/kg, time < 1 hrs, route iv; conditions: in vivo
[25] = Volume of distribution in Sprague-Dawley rat at 3 mg/kg,iv administration measured upto 24 hr by LC-MS/MS analysis; type: ADME, organism-based; conditions: in vivo
[26] = Clearance in Sprague-Dawley rat at 3 mg/kg,iv administration measured upto 24 hr by LC-MS/MS analysis; type: ADME, organism-based; conditions: in vivo
Escherichia coli [27] = experiment: Antibacterial activity against Escherichia coli ATCC 25922 assessed as inhibition of bacterial growth incubated for 18 hrs in presence of rifampicin with calcium and Mg2+ broth media by two fold serial dilution assay; type: functional, organism-based
[28] = Toxicity in male Sprague-Dawley rat assessed as reduction in body weight at 40 mg/kg,iv administration observed on day 14 relative to control; type: organism-based; parameters: scale not given: the % may be the effect or the level left; conditions: in vivo, 336 h, time 14 day
[29] = Toxicity in male Sprague-Dawley rat assessed as reduction in body weight at 20 mg/kg,iv administration and observed on day 2; type: organism-based; conditions: in vivo, 48 h, time 2 day
Escherichia coli [30] = experiment: Potentiation of rifampicin induced antibacterial activity against NDM1-producing carbapenem-resistant Escherichia coli infected CD1 mouse sepsis model assessed as reduction in bacterial colony forming unit in blood at 25 mg/kg,SC administrated after 2 hrs of post-infection in presence of rifampicin; type: functional
Escherichia coli [31] = experiment: Potentiation of rifampicin induced antibacterial activity against NDM1-producing carbapenem-resistant Escherichia coli infected CD1 mouse sepsis model assessed as reduction in bacterial colony forming unit in blood at 25 mg/kg,SC administrated after 6 hrs of post-infection in presence of rifampicin; type: functional
[32] = Toxicity in female Sprague-Dawley rat assessed as reduction in body weight at 20 to 60 mg/kg,iv administration observed on day 2; type: organism-based; conditions: in vivo, 48 h, dose 20-60 mg/kg, time 2 day
[33] = Hydrophobicity of the compound assessed as retention time by reversed-phase HPLC analysis; type: physicochemical
[34] = AUClast in CD1 mouse at 1 mg/kg,iv administration measured upto 1 hr by LC-MS/MS analysis; type: ADME, organism-based; parameters: time < 1 hrs, dose 1 mg/kg, route iv; conditions: in vivo
[35] = Drug localization in Escherichia coli ATCC 25922 assessed as increase in fluorescence at membrane at […] incubated for 30 mins by confocal laser scanning microscopy; type: ADME, cell membranes; conditions: 0.5 h, dose 0.63 µM
[36] = Drug localization in Escherichia coli ATCC 25922 assessed as increase in fluorescence at membrane at […] by fluorescence-activated cell sorting analysis; type: ADME, cell membranes; conditions: dose 0.13 µM
[37] = Drug localization in Acinetobacter baumannii ATCC 17978 assessed as increase in fluorescence at cytosol at 5 uM incubated for 30 mins by confocal laser scanning microscopy; type: ADME, subcellular; conditions: 0.5 h
Cell membrane [38] = experiment: Induction of outer membrane disruption in Acinetobacter baumannii ATCC 17978 at 5 uM incubated for 30 mins by confocal laser scanning microscopy; type: subcellular
Escherichia coli [39] = experiment: Potentiation of rifampicin induced antibacterial activity against NDM1-producing carbapenem-resistant Escherichia coli infected CD1 mouse sepsis model assessed as reduction in bacterial colony forming unit in blood at 10 mg/kg,SC administrated after 2 hrs of post-infection in presence of rifampicin; type: functional
Escherichia coli [40] = experiment: Potentiation of rifampicin induced antibacterial activity against NDM1-producing carbapenem-resistant Escherichia coli infected CD1 mouse sepsis model assessed as reduction in bacterial colony forming unit in blood at 10 mg/kg,SC administrated after 6 hrs of post-infection in presence of rifampicin; type: functional
[41] = Nephrotoxicity in Sprague-Dawley rat assessed as increase in creatinine level at 30 mg/kg,iv administration for 1 hr and measured after 25 hrs; type: toxicity, organism-based; conditions: in vivo, 26 h
Escherichia coli [42] = experiment: Antibacterial activity against Escherichia coli ATCC 25922 assessed as bacterial growth inhibition incubated for 1 hr by propidium iodide staining based fluorescence assay; type: functional, organism-based
Escherichia coli [43] = experiment: Antibacterial activity against Escherichia coli ATCC 25922 assessed as change in membrane fluidity incubated for 1 hr by generalized polarization assay; type: functional, organism-based

Compound: CCCCCCCC(=O)N[C@@H](CCCCN)C(=O)N[C@@H](CCCCN)C(=O)N[C@@H](C)C(=O)N[C@@H](CC(C)C)C(=O)N[C@@H](CCCCN)C(=O)N[C@@H](CC(C)C)C(=O)N[C@@H](C)C(=O)N[C@@H](CCCCN)C(=O)N[C@@H](CCCCN)C(=O)N1CCC[C@H]1C(=O)N[C@@H](CC(C)C)C(=O)N[C@@H](CCCCN)C(=O)N[C@@H](CC(C)C)C(=O)N[C@@H](CC(C)C)C(=O)N[C@@H](CCCCN)C(N)=O (HELM PEPTIDE1{[CCCCCCCC(=O)[*:2]].K.K.A.L.K.L.A.K.K.P.L.K.L.L.K.[am]}$$$$V2.0)
- clearance [1]: 190 mL/min/kg
- fold change (FC) (Escherichia coli [2]): 10
- AUClast [3]: 941 ng·h/mL
- MIC (Klebsiella pneumoniae [4]): > 80 µM
- MIC (Acinetobacter baumannii [5]): 20 µM (≈ 36.9 µg/mL)
- Activity (Escherichia coli [6]): Active
- MIC (Escherichia coli [7]): > 80 µM
- fold change (FC) (Cell membrane [8]): 10
- Activity (Acinetobacter baumannii [9]): inactive
- NOAEL at 336 h [10]: 20 mg/kg
- clearance [11]: 218 mL/min/kg
- Activity [12]: 0.28 mg/dL
- Activity [13]: 9%
- AUClast [14]: 246 ng·h/mL
- Activity (Klebsiella pneumoniae [15]): inactive
- clearance [16]: 182 mL/min/kg
- IC50 at 24 h [17]: 86.9 µM
- Activity [18]: Non-Toxic
- Activity [19]: 19 mg/dL
- NOAEL at 336 h [20]: 60 mg/kg
- Activity (Escherichia coli [21]): Active
- MHC10 [22]: > 160 µM
- Activity [23]: Non-Toxic
- AUClast [24]: 263 ng·h/mL
- Vd [25]: 3.07 L/kg
- clearance [26]: 192 mL/min/kg
- Activity (Escherichia coli [27]): inactive
- Activity [28]: 9%
- Activity [29]: Toxic
- Activity (Escherichia coli [30]): >4 log10CFU
- Activity (Escherichia coli [31]): >4 log10CFU
- Activity [32]: Toxic
- Retention_time [33]: 18.1 min
- AUClast [34]: 88.9 ng·h/mL

Compound: CCCCCCCC(=O)N[C@@H](CCCCNC(=O)c1ccc(-c2c3ccc(N(C)C)cc3[o+]c3cc(N(C)C)ccc23)c(C(=O)[O-])c1)C(=O)N[C@@H](CCCCN)C(=O)N[C@@H](C)C(=O)N[C@@H](CC(C)C)C(=O)N[C@@H](CCCCN)C(=O)N[C@@H](CC(C)C)C(=O)N[C@@H](C)C(=O)N[C@@H](CCCCN)C(=O)N[C@@H](CCCCN)C(=O)N1CCC[C@H]1C(=O)N[C@@H](CC(C)C)C(=O)N[C@@H](CCCCN)C(=O)N[C@@H](CC(C)C)C(=O)N[C@@H](CC(C)C)C(=O)N[C@@H](CCCCN)C(N)=O (Octanoyl-K(X1)KALKLAKKPLKLLK-NH2)
- Drug uptake [35]: Active
- Drug uptake [36]: Active
- Drug uptake [37]: Active
- Activity (Cell membrane [38]): Active

Compound: Ac-KLLKLLKKPLKLLK-NH2
- MIC (Klebsiella pneumoniae [4]): > 80 µM
- MIC (Acinetobacter baumannii [5]): 80 µM
- MIC (Escherichia coli [7]): > 80 µM
- Activity (Escherichia coli [39]): >3 log10CFU
- Activity (Escherichia coli [40]): >3 log10CFU
- MHC10 [22]: > 160 µM
- Retention_time [33]: 18.8 min

Compound: COLISTIN
- Activity [41]: 0.74 mg/dL
- Activity [19]: 30 mg/dL

Compound: POLYMYXIN B
- Activity (Escherichia coli [42]): Active
- Activity (Escherichia coli [43]): Active
